# Assay results published in US6916915B1, “Stressor regulated genes” (Duke University, priority 1998, dated 2005).
# System: C. elegans
# Experiment: Reverse-Northern dot-blot analysis of steady-state mRNA levels after cadmium exposure
# Type: in vivo, Caenorhabditis elegans
# Details: for Fold-change in mRNA levels following cadmium exposure, DDRT25: clone DDRT25; for Fold-change in mRNA levels following cadmium exposure, DDRT26: clone DDRT26; for Fold-change in mRNA levels following cadmium exposure, DDRT28: clone DDRT28; for Fold-change in mRNA levels following cadmium exposure, DDRT29: clone DDRT29; for Fold-change in mRNA levels following cadmium exposure, DDRT30: clone DDRT30; for Fold-change in mRNA levels following cadmium exposure, DDRT32: clone DDRT32; for Fold-change in mRNA levels following cadmium exposure, DDRT33D: clone DDRT33D; for Fold-change in mRNA levels following cadmium exposure, DDRT33U: clone DDRT33U; for Fold-change in mRNA levels following cadmium exposure, DDRT34: clone DDRT34; for Fold-change in mRNA levels following cadmium exposure, DDRT35: clone DDRT35; for Fold-change in mRNA levels following cadmium exposure, DDRT40: clone DDRT40; for Fold-change in mRNA levels following cadmium exposure, DDRT41: clone DDRT41; for Fold-change in mRNA levels following cadmium exposure, DDRT48: clone DDRT48; for Fold-change in mRNA levels following cadmium exposure, DDRT50: clone DDRT50; for Fold-change in mRNA levels following cadmium exposure, VL9: clone VL9; for Fold-change in mRNA levels following cadmium exposure, VL11: clone VL11; for Fold-change in mRNA levels following cadmium exposure, VL19: clone VL19; for Fold-change in mRNA levels following cadmium exposure, VL20: clone VL20; for Fold-change in mRNA levels following cadmium exposure, VL21: clone VL21
# Method: Growth and isolation of C. elegans—The N2 strain of C. elegans was grown in liquid S medium (0.1M NaCl, 50 mM potassium phosphate, pH 6.0, 5 μg/ml cholesterol, 10 mM potassium citrate, 3 mM CaCl2, 3 mM MgCl2, 50 μM EDTA, 25 μM FeSO4, 10 μM MnCl2, 10 μM ZnSO4 and 1 μM CuSO4) using E. coli OP50 as a food source (Brenner, S. (1974) Genetics 77, 71-94). In experiments where nematodes were exposed to cadmium, the medium was supplemented with 100 μM CdCl2 (Freedman, J. H. et al. (1993) J. Biol. Chem. 268, 2554-2564). C. elegans were grown in the presence of metal for 8 h or 24 h at ˜20° C. Nematodes were then collected following centrifugation at 800×g for 5 min. Pellets were suspended in 5 mM NaCl containing 35% sucrose (final concentration) and viable nematodes were collected from the top of the solution following centrifugation at 1000×g for 5 min at 4° C. Nematodes were then washed three times by suspension in M9 buffer (22 mM KH2PO4, 42 mM Na2HPO4, 85 mM NaCl, 1 mM MgSO4) followed by sedimentation at 800×g. Washed nematode pellets were finally suspended in a small volume of M9 buffer, rapidly frozen in liquid nitrogen and stored at −80° C.
# RNA isolation—Total RNA was isolated from mix-stage populations of C. elegans exposed to 100 μM CdCl2 for 8 h and 24 h and control, non-exposed nematodes. Frozen worms were first ground into a fine powder using a liquid nitrogen-cooled mortar and pestle. Powdered C. elegans (200 mg) were then homogenized in 2 ml of TRIzol (GIBCO/BRL). RNA was then collected from the aqueous phase following the addition of chloroform, precipitated by adding isopropyl alcohol and then air-dried. The dried RNA pellet was then dissolved in diethyl pyrocarbonate (DEPC)-treated water. For some experiments, poly(A^+) RNA was subsequently isolated using the Poly(A) Tract System following manufacturer's instructions (Promega).
# Reverse-Northern dot-blot analysis—Changes in the steady-state levels of differentially expressed mRNAs in C. elegans following cadmium-exposure were also determined by reverse-Northern dot-blot analysis by the modified procedure of Zhang et al. (Cummins, C. et al. (1988) Mol. Cell. Biol 8, 5334-5349). Briefly, differentially expressed cDNAs that were previously cloned into pGEM-T were amplified using primers that anneal to the T7 and SP6 RNA polymerase binding sites, which flank the cDNA insert. cDNAs were amplified and subsequently purified using a PCR-spin column (QIAGEN). Approximately 100 ng of each amplified cDNA were denatured by mixing with 0.1N NaOH (final concentration) and incubating at 100° C. for 5 min. The solution was neutralized following the addition of 3×SSC (final concentration) and then the volume adjusted to 700 μl with dH2O. 200-μl of each sample was applied to one of three Nytran membranes in a Bio-Dot microfiltration apparatus (BioRad). Membranes were then baked for 30 min at 80° C. under vacuum. As positive and loading controls 100 ng of mtl-1 cDNA and myosin light chain DNA were also applied to each membrane, respectively.
# Three pools of single-stranded ^32P-labeled cDNA probes were prepared from poly(A^+) RNA isolated from control, 8 h and 24 h cadmium-treated nematodes. cDNAs were generated from a mixture of mRNAs in a 25 μl reverse transcriptase reactions which contained 2 μg poly(A^+) RNA, 1 μg oligo (dT)18 primer, reverse transcriptase buffer, 800 μM DATP, dGTP and dTTP, 4.5 μM dCTP, 100 μCi [α-^32P]dCTP (3000 Ci/mmol), 20 units RNase inhibitor and 200 units Moloney murine leukemia virus reverse transcriptase. The reaction mixture was incubated at 37° C. for 1 h, then at 95° C. for 5 min to terminate the reaction. Unincorporated nucleotides were separated from the labeled cDNAs by using a G-25 spin column (Boehringer Mannheim). Equal amounts (5×10^6 cpm/ml) of each radioactive cDNA mixture were heat-denatured and then hybridized separately to one of the three membranes at 42° C. for 16 h in hybridization buffer. […]
# [1] = 8 hours, 100 μM CdCl2, relative to non-exposed, normalized to myosin light chain mRNA
# [2] = 24 hours, 100 μM CdCl2, relative to non-exposed, normalized to myosin light chain mRNA
smiles,measurement,setting,value
"[Cl][Cd][Cl] [cadmium, CdCl2]","Fold-change in mRNA levels following cadmium exposure, DDRT23","clone DDRT23, 24 hours, 100 μM CdCl2, relative to non-exposed, normalized to myosin light chain mRNA",3.0 fold
same,"Fold-change in mRNA levels following cadmium exposure, DDRT25",[1],3.9 fold
same,"Fold-change in mRNA levels following cadmium exposure, DDRT25",[2],4.4 fold
same,"Fold-change in mRNA levels following cadmium exposure, DDRT26",[1],4.4 fold
same,"Fold-change in mRNA levels following cadmium exposure, DDRT26",[2],4.7 fold
same,"Fold-change in mRNA levels following cadmium exposure, DDRT28",[1],1.7 fold
same,"Fold-change in mRNA levels following cadmium exposure, DDRT28",[2],1.8 fold
same,"Fold-change in mRNA levels following cadmium exposure, DDRT29",[1],3.9 fold
same,"Fold-change in mRNA levels following cadmium exposure, DDRT29",[2],4.4 fold
same,"Fold-change in mRNA levels following cadmium exposure, DDRT30",[1],2.7 fold
same,"Fold-change in mRNA levels following cadmium exposure, DDRT30",[2],3.1 fold
same,"Fold-change in mRNA levels following cadmium exposure, DDRT32",[1],2.6 fold
same,"Fold-change in mRNA levels following cadmium exposure, DDRT32",[2],2.4 fold
same,"Fold-change in mRNA levels following cadmium exposure, DDRT33D",[1],3.1 fold
same,"Fold-change in mRNA levels following cadmium exposure, DDRT33D",[2],3.5 fold
same,"Fold-change in mRNA levels following cadmium exposure, DDRT33U",[1],3.0 fold
same,"Fold-change in mRNA levels following cadmium exposure, DDRT33U",[2],3.5 fold
same,"Fold-change in mRNA levels following cadmium exposure, DDRT34",[1],2.4 fold
same,"Fold-change in mRNA levels following cadmium exposure, DDRT34",[2],3.0 fold
same,"Fold-change in mRNA levels following cadmium exposure, DDRT35",[1],1.6 fold
same,"Fold-change in mRNA levels following cadmium exposure, DDRT35",[2],1.9 fold
same,"Fold-change in mRNA levels following cadmium exposure, DDRT38","clone DDRT38, 24 hours, 100 μM CdCl2, relative to non-exposed, normalized to myosin light chain mRNA",1.8 fold
same,"Fold-change in mRNA levels following cadmium exposure, DDRT40",[1],1.9 fold
same,"Fold-change in mRNA levels following cadmium exposure, DDRT40",[2],2.3 fold
same,"Fold-change in mRNA levels following cadmium exposure, DDRT41",[1],2.2 fold
same,"Fold-change in mRNA levels following cadmium exposure, DDRT41",[2],2.1 fold
same,"Fold-change in mRNA levels following cadmium exposure, DDRT48",[1],2.1 fold
same,"Fold-change in mRNA levels following cadmium exposure, DDRT48",[2],2.6 fold
same,"Fold-change in mRNA levels following cadmium exposure, DDRT50",[1],2.2 fold
same,"Fold-change in mRNA levels following cadmium exposure, DDRT50",[2],2.2 fold
same,"Fold-change in mRNA levels following cadmium exposure, VL3","clone VL3, 24 hours, 100 μM CdCl2, relative to non-exposed, normalized to myosin light chain mRNA",2.4 fold
same,"Fold-change in mRNA levels following cadmium exposure, VL9",[1],−1.7 fold
same,"Fold-change in mRNA levels following cadmium exposure, VL9",[2],−2.3 fold
same,"Fold-change in mRNA levels following cadmium exposure, VL11",[1],3.2 fold
same,"Fold-change in mRNA levels following cadmium exposure, VL11",[2],6.1 fold
same,"Fold-change in mRNA levels following cadmium exposure, VL12","clone VL12 (mtl-1), 24 hours, 100 μM CdCl2, relative to non-exposed, normalized to myosin light chain mRNA",5.2 fold
same,"Fold-change in mRNA levels following cadmium exposure, VL19",[1],3.6 fold
same,"Fold-change in mRNA levels following cadmium exposure, VL19",[2],5.0 fold
same,"Fold-change in mRNA levels following cadmium exposure, VL20",[1],2.8 fold
same,"Fold-change in mRNA levels following cadmium exposure, VL20",[2],5.0 fold
same,"Fold-change in mRNA levels following cadmium exposure, VL21",[1],2.2 fold
same,"Fold-change in mRNA levels following cadmium exposure, VL21",[2],2.5 fold
same,"decrease in level of expression, a single clone",following cadmium exposure,~2 fold
same,"increase in steady-state level of expression, forty-eight of the clones",following cadmium exposure,2-6 fold
same,decrease in level of expression for VL9,"in response to cadmium, time not stated",~2 fold
